Values quoted from earlier work, collected in patent publication US20110111022A1, “PHARMACEUTICAL FORMULATION” (priority 2008, published 2011).

What was measured:
[1] = concurrent administration of aliskiren and irbesartan
[2] = molecular target: hepatic cytochrome P450 3A4 (Homo sapiens, UniProt P08684)
hepatic cytochrome P450 3A4, sequence (P08684 whole entry): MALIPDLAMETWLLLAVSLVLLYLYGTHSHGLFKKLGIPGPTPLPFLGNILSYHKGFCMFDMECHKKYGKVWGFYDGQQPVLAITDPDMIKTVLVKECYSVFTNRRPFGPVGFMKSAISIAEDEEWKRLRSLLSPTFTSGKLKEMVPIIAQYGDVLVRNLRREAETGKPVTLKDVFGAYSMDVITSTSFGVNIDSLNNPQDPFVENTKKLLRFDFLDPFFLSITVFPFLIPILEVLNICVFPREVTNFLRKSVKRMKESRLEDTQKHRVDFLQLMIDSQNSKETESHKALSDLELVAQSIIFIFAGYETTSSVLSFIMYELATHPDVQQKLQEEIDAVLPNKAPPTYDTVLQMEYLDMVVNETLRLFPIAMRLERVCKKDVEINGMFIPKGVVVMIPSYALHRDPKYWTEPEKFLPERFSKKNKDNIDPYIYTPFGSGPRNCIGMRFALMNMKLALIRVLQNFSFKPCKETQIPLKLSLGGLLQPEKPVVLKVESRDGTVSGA

COCCCOc1cc(C[C@@H](C[C@H](N)[C@@H](O)C[C@H](C(=O)NCC(C)(C)C(N)=O)C(C)C)C(C)C)ccc1OC [aliskiren, 2(S),4(S),5(S),7(S)—N-(3-amino-2,2-dimethyl-3-oxopropyl)-2,7-di(1-methylethyl)-4-hydroxy-5-amino-8-[4-methoxy-3-(3-methoxy-propoxy)phenyl]-octanamide]
decrease in blood aliskiren level [1]: 50%
metabolism in in vitro experiments [2]: metabolized by hepatic cytochrome P450 3A4
solubility in water: easily soluble in water
